ChEMBL document CHEMBL1201862, “PubChem BioAssay data set” (2004)
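Protocol summary: plate cells (96-well), add compound at 5 concentrations, incubate 48 h, interpolate endpoints linearly. GI50 marks 50% less growth.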 Activity calls are given as the source filed them. No stated cut-off is given here; in the data, active = GI50 up to about 1.1 µM and inactive = higher.

Experiments:
Test in all cases: NCI-60 cell line screen, 48 h
786-0 = test system: 786-0
A498 = test system: A498
A549 = test system: A549
CAKI-1 = test system: CAKI-1
CCRF-CEM = test system: CCRF-CEM
HCT-116 = test system: HCT-116
HOP-62 = test system: HOP-62
IGROV-1 = test system: IGROV-1
K562 = test system: K562
LOX IMVI = test system: LOX IMVI
M14 = test system: M14
MDA-N = test system: MDA-N
NCI-H522 = test system: NCI-H522
NCI/ADR-RES = test system: NCI/ADR-RES
RXF 393 = test system: RXF 393
SF-539 = test system: SF-539
SN12C = test system: SN12C
TK-10 = test system: TK-10
UACC-62 = test system: UACC-62
UO-31 = test system: UO-31

Measured: GI50

C=C(C)[C@@H]1CC[C@]2(C(=O)O)CC[C@]3(C)[C@H](CC[C@@H]4[C@@]5(C)CC[C@H](O)C(C)(C)[C@@H]5CC[C@]43C)[C@@H]12 [BETULINIC ACID]
inactive: 786-0 10.2 µM | A498 6.08 µM | A549 4.88 µM | CAKI-1 11.6 µM | CCRF-CEM 5.15 µM | HCT-116 4.27 µM | HOP-62 8.36 µM | IGROV-1 11.9 µM | K562 5.13 µM | LOX IMVI 11.3 µM | M14 10.3 µM | MDA-N 16.7 µM | NCI-H522 3.21 µM | NCI/ADR-RES 7.23 µM | RXF 393 2.64 µM | SF-539 4.03 µM | SN12C 10.8 µM | TK-10 14.8 µM | UACC-62 14.1 µM | UO-31 11 µM
